Assay results: US11325916B1, “Spiropyrrolidine derived antiviral agents” (priority 2021, dated 2022)
Where two headings read alike, the source gives them in different places.

Tests used:
[1] = system: 229E human corona virus (hCoV); assay: 229E Live Virus Assay (MRC-5 cells, CPE, ATPlite readout); type: cell-based, hCoV-229E; conditions: Human coronavirus 229E, MRC5, 144 h, read-out: 229E EC50
[2] = biological target: SARS-CoV-2 3CL-protease (Severe acute respiratory syndrome coronavirus 2 (2019-nCoV) (SARS-CoV-2), UniProt P0DTD1); assay: SARS-CoV-2 3C-Like (3CL) Protease Fluorescence Assay (FRET); type: biochemical
[3] = MRC-5 cells, hCoV-229E MOI 0.05, 6 days at 34° C., ATPlite, duplicate, ranges defined in μM

SMILES	EC50 [1]	IC50 [2]	EC50 [1, 3]
CN(C(=O)[C@H](Cc1ccc(F)cc1)NC(=O)C1CCC1)[C@@H](CC(C)(C)C)C(=O)N1C[C@]2(C[C@H]1C#N)C(=O)Nc1ccccc12 [Example 64]	< 0.1 µM	< 100 nM	–
CC(C)[C@@H](NC(=O)C(F)(F)F)C(=O)N(C)[C@@H](Cc1ccccc1)C(=O)N1C[C@]2(C[C@H]1C#N)C(=O)Nc1ccccc12 [Example 51]	–	< 100 nM	0.1 to 1 µM
CC(C)C[C@@H](C(=O)N1C[C@]2(C[C@H]1C#N)C(=O)Nc1ccccc12)N(C)C(=O)C(NC(=O)OCc1ccccc1)c1ccccc1 (stereo partly shown) [Example 22]	< 0.1 µM	< 100 nM	–
CC(C)C[C@@H](C(=O)N1C[C@]2(C[C@H]1C#N)C(=O)Nc1ccccc12)N(C)C(=O)[C@H](CC(C)(C)C)NC(=O)C(F)(F)F [Example 26]	< 0.1 µM	< 100 nM	–
CC(C)C[C@@H](C(=O)N1C[C@]2(C[C@H]1C#N)C(=O)Nc1ccccc12)N1CC[C@H](NC(=O)C(F)(F)F)C1=O [Example 50]	> 1 µM	100 to 1000 nM	–
CC(C)C[C@@H](C(=O)N1C[C@]2(C[C@H]1C#N)C(=O)Nc1ccccc12)N(C)C(=O)[C@H](CC(C)(C)C)NC(=O)C(C)(C)C [Example 43]	< 0.1 µM	< 100 nM	–
CC(C)(C)C[C@H](NC(=O)[C@H](Cc1ccc(F)cc1)NC(=O)C(F)(F)F)C(=O)N1C[C@]2(C[C@H]1C#N)C(=O)Nc1ccccc12 [Example 63]	–	< 100 nM	< 0.1 µM
CN(C(=O)[C@H](Cc1ccc(F)cc1)NC(=O)C(F)(F)F)[C@@H](CC(C)(C)C)C(=O)N1C[C@]2(C[C@H]1C#N)C(=O)Nc1ccccc12 [Example 6]	–	< 100 nM	< 0.1 µM
CC(C)[C@@H](NC(=O)C(F)(F)F)C(=O)N[C@@H](CC(C)(C)C)C(=O)N1C[C@]2(C[C@H]1C#N)C(=O)Nc1ccccc12 [Example 91]	0.1 to 1 µM	100 to 1000 nM	–
CN(C(=O)[C@H](CC1CC1)NC(=O)C1CC1)[C@@H](CC(C)(C)C)C(=O)N1C[C@]2(C[C@H]1C#N)C(=O)Nc1ccccc12 [Example 76]	< 0.1 µM	< 100 nM	–
COC(=O)N[C@@H](Cc1ccc(F)cc1)C(=O)N(C)[C@@H](CC(C)C)C(=O)N1C[C@]2(C[C@H]1C#N)C(=O)Nc1ccccc12 [Example 3]	< 0.1 µM	< 100 nM	–
CN(C(=O)[C@H](Cc1ccc(F)cc1)NC(=O)N1CCOCC1)[C@@H](CC(C)(C)C)C(=O)N1C[C@]2(C[C@H]1C#N)C(=O)Nc1ccccc12 [Example 68]	< 0.1 µM	< 100 nM	–
CC(C)C[C@@H](C(=O)N1C[C@]2(C[C@H]1C#N)C(=O)Nc1ccccc12)N(C)C(=O)[C@H](CC1CCC1)NC(=O)c1ccc(F)cc1 [Example 35]	< 0.1 µM	< 100 nM	–
CC(C)C[C@@H](C(=O)N1C[C@]2(C[C@H]1C#N)C(=O)Nc1ccccc12)N(C)C(=O)[C@H](CC(C)(C)C)NC(=O)c1ccc(F)cc1 [Example 34]	< 0.1 µM	< 100 nM	–
CC(C)C[C@H](NC(=O)[C@@H](NC(=O)OCc1ccccc1)C(C)(C)C)C(=O)N1C[C@]2(C[C@H]1C#N)C(=O)Nc1ccccc12 [Example 36]	0.1 to 1 µM	< 100 nM	–
CC(C)C[C@@H](C(=O)N1C[C@]2(C[C@H]1C#N)C(=O)Nc1ccccc12)N(C)C(=O)[C@@H](NC(=O)OCc1ccccc1)C(C)(C)C [Example 11]	0.1 to 1 µM	< 100 nM	–
CC(C)OC(=O)N[C@@H](CC1CC1)C(=O)N(C)[C@@H](CC(C)(C)C)C(=O)N1C[C@]2(C[C@H]1C#N)C(=O)Nc1ccccc12 [Example 121]	< 0.1 µM	< 100 nM	–
CN(C(=O)[C@H](CC1CC1)NC(=O)c1cn(C2CC2)nn1)[C@@H](CC(C)(C)C)C(=O)N1C[C@]2(C[C@H]1C#N)C(=O)Nc1ccccc12 [Example 124]	< 0.1 µM	< 100 nM	–
CC(=O)N[C@H](Cc1cc(F)c(F)cc1F)C(=O)N(C)[C@@H](CC(C)(C)C)C(=O)N1C[C@]2(C[C@H]1C#N)C(=O)Nc1ccccc12 [Example 114]	< 0.1 µM	< 100 nM	–
CC(C)(C)C(N)C(=O)N1CCC[C@H]1C(=O)N1C[C@]2(C[C@H]1C#N)C(=O)Nc1ccccc12 (stereo partly shown) [Example 56]	–	> 1000 nM	> 1 µM
CN(C(=O)[C@H](Cc1ccc(F)cc1)NC(=O)C1COC1)[C@@H](CC(C)(C)C)C(=O)N1C[C@]2(C[C@H]1C#N)C(=O)Nc1ccccc12 [Example 65]	< 0.1 µM	< 100 nM	–
CC(C)C[C@@H](C(=O)N1C[C@]2(C[C@H]1C#N)C(=O)Nc1ccccc12)N(C)C(=O)[C@@H](NC(=O)OCc1ccccc1)C1CCCCC1 [Example 20]	< 0.1 µM	< 100 nM	–
CN(C(=O)[C@H](CC1CC1)NC(=O)NC1CC1)[C@@H](CC(C)(C)C)C(=O)N1C[C@]2(C[C@H]1C#N)C(=O)Nc1ccccc12 [Example 85]	< 0.1 µM	< 100 nM	–
CC(C)C[C@@H](C(=O)N1C[C@]2(C[C@H]1C#N)C(=O)Nc1ccccc12)N(C)C(=O)C1(NC(=O)OCc2ccccc2)CCCC1 [Example 115]	0.1 to 1 µM	< 100 nM	–

SMILES	EC50 [1]	IC50 [2]	EC50 [1, 3]
CC(C)C[C@@H](C(=O)N1C[C@]2(C[C@H]1C#N)C(=O)Nc1ccccc12)N(C)C(=O)[C@H](CC1CC1)NC(=O)c1ccc(F)cc1 [Example 17]	< 0.1 µM	< 100 nM	–
CC(C)[C@H](NC(=O)c1ccc(F)c(F)c1)C(=O)N(C)[C@@H](CC(C)(C)C)C(=O)N1C[C@]2(C[C@H]1C#N)C(=O)Nc1ccccc12 [Example 107]	0.1 to 1 µM	< 100 nM	–
CC(C)C[C@@H](C(=O)N1C[C@]2(C[C@H]1C#N)C(=O)Nc1ccccc12)N(C)C(=O)[C@H](CC1CCC1)NC(=O)OCc1ccccc1 [Example 24]	< 0.1 µM	< 100 nM	–
CN(C(=O)[C@H](Cc1ccc(F)cc1)NC(=O)OCc1ccccc1)[C@@H](CC(C)(C)C)C(=O)N1C[C@]2(C[C@H]1C#N)C(=O)Nc1ccccc12 [Example 5]	< 0.1 µM	< 100 nM	–
CN(C(=O)[C@H](CC1CC1)NS(=O)(=O)C1CC1)[C@@H](CC(C)(C)C)C(=O)N1C[C@]2(C[C@H]1C#N)C(=O)Nc1ccccc12 [Example 82]	< 0.1 µM	< 100 nM	–
CN(C(=O)[C@H](Cc1ccc(F)cc1)NC(=O)NC1CC1)[C@@H](CC(C)(C)C)C(=O)N1C[C@]2(C[C@H]1C#N)C(=O)Nc1ccccc12 [Example 8]	< 0.1 µM	< 100 nM	–
[2H]C([2H])([2H])N(C(=O)[C@H](CC1CC1)NC(=O)C(F)(F)F)[C@@H](CC1CC1)C(=O)N1C[C@]2(C[C@H]1C#N)C(=O)Nc1ccccc12 [Example 134]	< 0.1 µM	< 100 nM	–
CC(C)C[C@@H](C(=O)N1C[C@]2(C[C@H]1C#N)C(=O)Nc1ccccc12)N(C)C(=O)[C@H](CC1CCC1)NC(=O)C(F)(F)F [Example 27]	< 0.1 µM	< 100 nM	–
CN(C(=O)[C@@H](NC(=O)OCc1ccccc1)C(C)(C)C)[C@@H](Cc1ccccc1)C(=O)N1C[C@]2(C[C@H]1C#N)C(=O)Nc1ccccc12 [Example 28]	0.1 to 1 µM	< 100 nM	–
CN(C(=O)[C@H](Cc1ccc(F)cc1)n1cc(-c2ccccc2)nn1)[C@@H](CC(C)(C)C)C(=O)N1C[C@]2(C[C@H]1C#N)C(=O)Nc1ccccc12 [Example 54]	< 0.1 µM	< 100 nM	–
CC(C)C[C@@H](C(=O)N1C[C@]2(C[C@H]1C#N)C(=O)Nc1ccccc12)N(C)C(=O)[C@H](Cc1ccc(F)cc1)NC(=O)C(F)(F)F [Example 2]	–	< 100 nM	< 0.1 µM
CC(=O)N[C@@H](Cc1cc(F)c(F)cc1F)C(=O)N(C)[C@@H](CC(C)(C)C)C(=O)N1C[C@]2(C[C@H]1C#N)C(=O)Nc1ccccc12 [Example 113]	< 0.1 µM	< 100 nM	–
CC(C)C[C@@H](C(=O)N1C[C@]2(C[C@H]1C#N)C(=O)Nc1ccccc12)N(C)C(=O)[C@H](CC(C)(C)C)N(C)C(=O)OCc1ccccc1 [Example 32]	< 0.1 µM	< 100 nM	–
C[C@H](NC(=O)C(F)(F)F)C(=O)N(C)[C@@H](CC(C)(C)C)C(=O)N1C[C@]2(C[C@H]1C#N)C(=O)Nc1ccccc12 [Example 128]	< 0.1 µM	< 100 nM	–
CC(C)C[C@@H](C(=O)N1C[C@]2(C[C@H]1C#N)C(=O)Nc1ccccc12)N(C)C(=O)[C@H](CC1CC1)NC(=O)C(F)(F)F [Example 15]	< 0.1 µM	< 100 nM	–
CC(C)C[C@@H](C(=O)N1C[C@]2(C[C@H]1C#N)C(=O)Nc1ccccc12)N(C)C(=O)[C@H](Cc1ccc(F)cc1)NC(=O)c1ccn(C)n1 [Example 19]	< 0.1 µM	< 100 nM	–
CN(C(=O)[C@H](CC1CC1)NC(=O)N1CCOCC1)[C@@H](CC(C)(C)C)C(=O)N1C[C@]2(C[C@H]1C#N)C(=O)Nc1ccccc12 [Example 83]	< 0.1 µM	< 100 nM	–
CC(C)C[C@@H](C(=O)N1C[C@]2(C[C@H]1C#N)C(=O)Nc1ccccc12)N(C)C(=O)[C@@H](NC(=O)OCc1ccccc1)C(C)C [Example 49]	< 0.1 µM	< 100 nM	–
CC(C)C[C@@H](C(=O)N1C[C@]2(C[C@H]1C#N)C(=O)Nc1ccccc12)N(C)C(=O)[C@H](Cc1ccc(F)cc1)NC(=O)OCc1ccccc1 [Example 1]	< 0.1 µM	< 100 nM	–
CC(C)(C)C(NCc1cc(F)c(F)cc1F)C(=O)N1CCC[C@H]1C(=O)N1C[C@]2(C[C@H]1C#N)C(=O)Nc1ccccc12 (stereo partly shown) [Example 61]	> 1 µM	> 1000 nM	–
CN(C(=O)[C@H](Cc1ccc(F)cc1)NS(=O)(=O)C1CC1)[C@@H](CC(C)(C)C)C(=O)N1C[C@]2(C[C@H]1C#N)C(=O)Nc1ccccc12 [Example 66]	< 0.1 µM	< 100 nM	–
CC(C)(C)C(NS(=O)(=O)c1ccccc1)C(=O)N1CCC[C@H]1C(=O)N1C[C@]2(C[C@H]1C#N)C(=O)Nc1ccccc12 (stereo partly shown) [Example 57]	> 1 µM	> 1000 nM	–
CC(=O)N[C@@H](C(=O)N[C@@H](CC(C)(C)C)C(=O)N1C[C@]2(C[C@H]1C#N)C(=O)Nc1ccccc12)C(C)C [Example 89]	0.1 to 1 µM	100 to 1000 nM	–
